From ChEMBL document CHEMBL1212897 (J Med Chem, 2010)
Activity calls are given as the source filed them. The rule behind the calls is not given here.

Legend:
[1] = system: Rattus norvegicus; assay: Protection against high salt-induced kidney injury in Dahl salt sensitive hypertensive rat assessed as decrease in urinary albumin level at 40 to 100 mg/kg, po relative to eplerenone; assay type: functional; parameters: scale not given: the % may be the effect or the level left; conditions: dose mg/kg 40-100
[2] = Clearance in Sprague-Dawley rat at 2 mg/kg, iv; assay type: ADME, organism-based; parameters: dose 2 mg/kg, route intravenous; conditions: in vivo
[3] = system: Rattus norvegicus; assay: Effect on renal function in rat assessed as reduction in serum potassium level at 10 mg/kg, po; assay type: functional, organism-based; parameters: dose 10 mg/kg
[4] = Volume of distribution at steady state in Sprague-Dawley rat at 2 mg/kg, iv; assay type: ADME, organism-based; parameters: dose 2 mg/kg, route intravenous; conditions: in vivo, read-out: Vdss
[5] = system: Rattus norvegicus; assay: Protection against high salt-induced kidney injury in Dahl salt sensitive hypertensive rat assessed as decrease in glomerulosclerosis at 10 mg/kg, po relative to eplerenone; assay type: functional, organism-based; parameters: dose 10 mg/kg
[6] = system: Rattus norvegicus; assay: Protection against high salt-induced kidney injury in Dahl salt sensitive hypertensive rat assessed as decrease in urinary albumin level at 10 mg/kg, po relative to eplerenone; assay type: functional; parameters: scale not given: the % may be the effect or the level left
[7] = system: Rattus norvegicus; assay: Antihypertensive activity in Dahl salt sensitive hypertensive rat assessed as reduction in systolic blood pressure at 40 to 100 mg/kg, po bid for 21 days (RVb = 10 to 50 mmHg); assay type: functional, Artery; conditions: dose mg/kg 40-100
[8] = Half life in Sprague-Dawley rat at 2 mg/kg, iv; assay type: ADME, organism-based; parameters: dose 2 mg/kg, route intravenous; conditions: in vivo
[9] = Oral bioavailability in Sprague-Dawley rat at 2 mg/kg; assay type: ADME, organism-based; conditions: in vivo
[10] = target: T1, Glucocorticoid receptor (Homo sapiens, UniProt P04150)
T1 sequence (P04150 whole entry): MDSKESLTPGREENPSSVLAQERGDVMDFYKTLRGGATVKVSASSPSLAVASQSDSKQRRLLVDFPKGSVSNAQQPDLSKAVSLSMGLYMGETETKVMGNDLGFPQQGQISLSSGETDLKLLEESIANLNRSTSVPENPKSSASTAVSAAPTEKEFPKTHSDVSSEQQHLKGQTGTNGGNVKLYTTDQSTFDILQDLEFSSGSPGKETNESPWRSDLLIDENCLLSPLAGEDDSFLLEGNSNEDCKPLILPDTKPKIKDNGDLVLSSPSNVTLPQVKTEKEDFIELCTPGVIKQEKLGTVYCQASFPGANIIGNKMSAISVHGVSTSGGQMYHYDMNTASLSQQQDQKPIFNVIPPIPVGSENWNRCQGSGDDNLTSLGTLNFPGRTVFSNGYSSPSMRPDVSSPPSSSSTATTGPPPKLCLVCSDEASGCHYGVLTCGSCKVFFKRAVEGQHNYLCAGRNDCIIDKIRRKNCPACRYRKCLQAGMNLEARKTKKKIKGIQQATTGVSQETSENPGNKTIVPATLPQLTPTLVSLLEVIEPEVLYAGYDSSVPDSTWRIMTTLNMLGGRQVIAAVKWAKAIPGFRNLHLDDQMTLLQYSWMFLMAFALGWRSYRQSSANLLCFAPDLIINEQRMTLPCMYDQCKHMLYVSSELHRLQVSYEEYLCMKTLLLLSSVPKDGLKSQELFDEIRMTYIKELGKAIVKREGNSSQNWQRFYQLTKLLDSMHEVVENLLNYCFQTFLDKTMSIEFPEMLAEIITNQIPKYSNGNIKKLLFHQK

[11] = target: T2, Androgen receptor (Homo sapiens, UniProt P10275)
T2 sequence (P10275 whole entry): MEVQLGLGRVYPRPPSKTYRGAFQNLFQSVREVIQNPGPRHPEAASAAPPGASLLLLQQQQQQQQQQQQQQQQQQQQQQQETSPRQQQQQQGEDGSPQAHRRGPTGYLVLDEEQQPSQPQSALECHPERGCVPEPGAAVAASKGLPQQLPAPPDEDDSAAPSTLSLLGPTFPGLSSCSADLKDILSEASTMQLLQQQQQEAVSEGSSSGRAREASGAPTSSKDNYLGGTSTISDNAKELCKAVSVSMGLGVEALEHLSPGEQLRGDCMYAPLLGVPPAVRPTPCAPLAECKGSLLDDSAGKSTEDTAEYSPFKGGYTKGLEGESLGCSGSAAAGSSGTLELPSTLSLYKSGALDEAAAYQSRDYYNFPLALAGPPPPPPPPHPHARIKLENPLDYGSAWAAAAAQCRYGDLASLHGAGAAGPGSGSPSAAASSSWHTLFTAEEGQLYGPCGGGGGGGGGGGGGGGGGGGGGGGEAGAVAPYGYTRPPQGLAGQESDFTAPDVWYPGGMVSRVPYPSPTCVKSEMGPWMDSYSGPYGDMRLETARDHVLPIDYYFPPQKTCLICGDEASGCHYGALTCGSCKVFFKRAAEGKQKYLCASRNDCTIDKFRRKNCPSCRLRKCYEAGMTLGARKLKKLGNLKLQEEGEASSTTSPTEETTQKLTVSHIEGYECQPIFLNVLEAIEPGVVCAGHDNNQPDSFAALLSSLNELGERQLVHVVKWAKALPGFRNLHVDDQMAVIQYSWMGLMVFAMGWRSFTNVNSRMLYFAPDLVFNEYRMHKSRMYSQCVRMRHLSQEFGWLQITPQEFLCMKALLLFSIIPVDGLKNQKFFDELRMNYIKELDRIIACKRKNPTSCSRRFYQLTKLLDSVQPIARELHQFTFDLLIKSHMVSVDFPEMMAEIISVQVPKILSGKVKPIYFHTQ

[12] = target: T3, Mineralocorticoid receptor (Homo sapiens, UniProt P08235); assay type: functional, cell-based, Huh-7;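 also: antagonism at Gal4-fused mineralocorticoid receptor in human Huh7 cells, measured by luciferase reporter gene read-out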
T3 sequence (P08235 whole entry): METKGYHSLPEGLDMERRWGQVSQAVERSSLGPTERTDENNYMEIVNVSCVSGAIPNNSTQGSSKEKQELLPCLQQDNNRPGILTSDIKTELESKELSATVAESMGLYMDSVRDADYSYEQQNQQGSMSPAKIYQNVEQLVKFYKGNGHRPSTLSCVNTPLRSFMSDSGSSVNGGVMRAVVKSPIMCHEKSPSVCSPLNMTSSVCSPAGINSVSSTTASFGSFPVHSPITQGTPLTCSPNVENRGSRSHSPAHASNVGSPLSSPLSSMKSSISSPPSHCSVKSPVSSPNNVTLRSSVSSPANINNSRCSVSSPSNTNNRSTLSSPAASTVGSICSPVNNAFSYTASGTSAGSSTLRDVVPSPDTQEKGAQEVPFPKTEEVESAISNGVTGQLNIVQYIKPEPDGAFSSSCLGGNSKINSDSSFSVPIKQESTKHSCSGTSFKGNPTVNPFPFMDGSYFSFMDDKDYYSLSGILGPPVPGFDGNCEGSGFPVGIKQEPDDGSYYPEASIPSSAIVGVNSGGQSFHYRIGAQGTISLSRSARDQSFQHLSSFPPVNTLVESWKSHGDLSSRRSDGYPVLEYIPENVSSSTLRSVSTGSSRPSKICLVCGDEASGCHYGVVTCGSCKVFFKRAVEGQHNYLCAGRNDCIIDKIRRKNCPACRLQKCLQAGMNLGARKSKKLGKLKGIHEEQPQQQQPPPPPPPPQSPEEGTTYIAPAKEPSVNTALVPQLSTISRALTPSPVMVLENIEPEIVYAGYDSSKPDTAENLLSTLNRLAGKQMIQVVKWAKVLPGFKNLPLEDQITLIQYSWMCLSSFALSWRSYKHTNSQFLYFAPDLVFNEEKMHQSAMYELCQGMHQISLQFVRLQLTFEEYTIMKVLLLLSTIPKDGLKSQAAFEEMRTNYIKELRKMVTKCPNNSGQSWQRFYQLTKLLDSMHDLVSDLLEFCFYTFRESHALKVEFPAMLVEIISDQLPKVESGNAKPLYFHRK

[13] = target: T4, Progesterone receptor (Homo sapiens, UniProt P06401); assay: Antagonist activity at progesterone receptor; assay type: functional
T4 sequence (P06401 whole entry): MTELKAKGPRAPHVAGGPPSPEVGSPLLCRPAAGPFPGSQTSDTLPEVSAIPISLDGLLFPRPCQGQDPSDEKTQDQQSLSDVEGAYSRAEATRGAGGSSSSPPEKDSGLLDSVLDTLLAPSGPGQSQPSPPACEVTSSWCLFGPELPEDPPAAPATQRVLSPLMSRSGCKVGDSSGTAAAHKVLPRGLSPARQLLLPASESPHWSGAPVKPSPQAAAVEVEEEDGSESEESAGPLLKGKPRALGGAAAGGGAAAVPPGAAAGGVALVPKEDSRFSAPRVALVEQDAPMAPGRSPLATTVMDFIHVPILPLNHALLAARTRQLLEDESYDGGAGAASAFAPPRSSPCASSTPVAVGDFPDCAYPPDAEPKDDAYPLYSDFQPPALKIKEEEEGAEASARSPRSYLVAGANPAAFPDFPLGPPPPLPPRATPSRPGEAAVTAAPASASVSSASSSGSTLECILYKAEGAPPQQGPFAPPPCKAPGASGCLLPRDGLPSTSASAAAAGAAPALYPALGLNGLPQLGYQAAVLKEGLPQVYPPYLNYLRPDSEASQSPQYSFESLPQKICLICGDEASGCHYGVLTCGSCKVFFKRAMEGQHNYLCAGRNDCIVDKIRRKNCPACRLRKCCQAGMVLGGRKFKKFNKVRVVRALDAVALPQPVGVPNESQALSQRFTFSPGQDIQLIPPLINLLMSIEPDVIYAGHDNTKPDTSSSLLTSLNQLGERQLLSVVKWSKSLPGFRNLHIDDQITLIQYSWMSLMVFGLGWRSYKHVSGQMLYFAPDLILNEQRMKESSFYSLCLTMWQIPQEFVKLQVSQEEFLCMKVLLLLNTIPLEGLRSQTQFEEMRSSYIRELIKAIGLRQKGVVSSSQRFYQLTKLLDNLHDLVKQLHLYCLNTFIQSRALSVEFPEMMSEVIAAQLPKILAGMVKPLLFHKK

[14] = target: T5, Estrogen receptor (Homo sapiens, UniProt P03372); assay: Antagonist activity at estrogen receptor; assay type: functional
T5 sequence (P03372 whole entry): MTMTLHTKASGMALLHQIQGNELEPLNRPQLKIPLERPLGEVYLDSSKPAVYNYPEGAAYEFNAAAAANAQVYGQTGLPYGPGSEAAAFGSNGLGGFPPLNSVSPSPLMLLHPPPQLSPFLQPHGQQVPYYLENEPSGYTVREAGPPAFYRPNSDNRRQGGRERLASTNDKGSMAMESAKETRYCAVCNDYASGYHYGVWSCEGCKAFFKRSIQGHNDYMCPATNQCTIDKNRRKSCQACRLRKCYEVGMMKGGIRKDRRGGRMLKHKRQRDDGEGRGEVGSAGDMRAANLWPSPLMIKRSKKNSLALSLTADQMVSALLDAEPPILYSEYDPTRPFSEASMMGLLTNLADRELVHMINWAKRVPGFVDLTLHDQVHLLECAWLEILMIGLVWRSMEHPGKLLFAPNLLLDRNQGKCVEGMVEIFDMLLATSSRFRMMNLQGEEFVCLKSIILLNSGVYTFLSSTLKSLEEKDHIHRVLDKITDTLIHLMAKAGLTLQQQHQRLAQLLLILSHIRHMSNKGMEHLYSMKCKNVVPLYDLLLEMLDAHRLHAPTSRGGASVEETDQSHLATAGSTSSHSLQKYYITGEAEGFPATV

[15] = Clearance in Sprague-Dawley rat at 1 mg/kg, iv; assay type: ADME, organism-based; parameters: dose 1 mg/kg, route intravenous; conditions: in vivo
[16] = Half life in Sprague-Dawley rat at 1 mg/kg, iv; assay type: ADME, organism-based; parameters: dose 1 mg/kg, route intravenous; conditions: in vivo
[17] = Oral bioavailability in Sprague-Dawley rat at 1 mg/kg; assay type: ADME, organism-based; conditions: in vivo
[18] = Volume of distribution at steady state in Sprague-Dawley rat at 1 mg/kg, iv; assay type: ADME, organism-based; parameters: dose 1 mg/kg, route intravenous; conditions: in vivo, read-out: Vdss

For `N#Cc1ccc(N2N=C3c4ccc(C(=O)O)cc4CC[C@@H]3[C@@H]2C2CCCC2)cc1Cl` [PF-03882845], the Activity [1] was 50%, the clearance [2] was 9.8 mL/min/kg and the Activity [3] was “Active”. The Vd [4] was 1.4 L/kg, the Activity [5] was “Active” and the Activity [6] was 18%. The Activity [7] was less than 5 mmHg, the half-life [8] was 1.7 h and the bioavailability [9] was 86%.

With `N#Cc1ccc(N2N=C(c3ccc(C(=O)O)cc3)C[C@@H]2c2ccc(F)cc2)cc1Cl` the clearance [2] was 6.9 mL/min/kg, the Vd [4] was 1.5 L/kg and the IC50 [10] was greater than 10 µM. For the same molecule, the IC50 [11] was greater than 8.92 µM, the IC50 [12] was 0.031 µM and the IC50 [13] was 2.08 µM. It also gave a half-life [8] of 2.6 h and a bioavailability [9] of 46%.

`CC(=O)S[C@@H]1CC2=CC(=O)CC[C@]2(C)[C@H]2CC[C@@]3(C)[C@@H](CC[C@@]34CCC(=O)O4)[C@H]12` [SPIRONOLACTONE] showed an IC50 [10] of 6.92 µM and an IC50 [14] of 5.7 µM.

Work on `CCOc1cc(C2=NN(c3ccc(C#N)c(Cl)c3)[C@@H](C3CCCC3)C2)ccc1C(=O)O` yielded a clearance [15] of 9.2 mL/min/kg, a clearance [2] of 5.5 mL/min/kg and a Vd [4] of 0.6 L/kg. The half-life [16] was 2.5 h, the half-life [8] was 1.3 h and the bioavailability [17] was 50%. For the same molecule, the IC50 [14] was greater than 4.96 µM, the bioavailability [9] was 83% and the Vd [18] was 2.3 L/kg.

For `Cc1cc(N2N=C3c4ccc(C(=O)O)cc4CO[C@@H]3[C@@H]2C2CCCC2)ccc1C#N`, the clearance [2] was 4.6 mL/min/kg, the Vd [4] was 0.6 L/kg and the IC50 [10] was greater than 10 µM. For the same molecule, the IC50 [11] was greater than 10 µM, the IC50 [12] was 0.026 µM and the IC50 [13] was 1.88 µM. For the same molecule, the half-life [8] was 1.6 h and the bioavailability [9] was 57%.

For `N#Cc1ccc(N2N=C(c3ccc(C(=O)O)cc3)C[C@@H]2C2CCCC2)cc1Cl`, the clearance [2] was 34 mL/min/kg, the Vd [4] was 3.6 L/kg and the IC50 [10] was greater than 10 µM. The IC50 [11] was greater than 10 µM, the IC50 [12] was 0.016 µM and the IC50 [13] was greater than 4.31 µM. For the same molecule, the half-life [8] was 1.2 h and the bioavailability [9] was 100%.

`N#Cc1ccc(N2N=C3c4ccc(C(=O)O)cc4CC[C@@H]3[C@@H]2C2CCCC2)cc1` (racemic) gave an IC50 [10] greater than 10 µM, an IC50 [11] greater than 10 µM and an IC50 [12] of 0.089 µM. For the same molecule, the IC50 [13] was 3.18 µM.
